In PMC6825221, “In silico re-engineering of a neurotransmitter to activate KCNQ potassium channels in an isoform-specific manner” (Communications Biology, 2019):
Several values for one entry are separate records, joined by “and”; a condition that tells them apart may be missing. Equal values may be shown once. Entries after “also recorded” stand apart in the source; their conditions may differ.

How the values were obtained:
KCNQ2 = KCNQ2 (Homo sapiens, UniProt O43526); assay: [3H]GABA binding and competition, oocytes expressing KCNQ2; conditions: 100 µM
KCNQ2/KCNQ3-W265L = KCNQ2/KCNQ3-W265L (Homo sapiens, UniProt O43525+O43526, W265L); assay: TEVC of KCNQ2/3 with KCNQ3-W265L mutation; type: cell-based
Text: We generated cRNA transcripts encoding human KCNQ1, KCNQ2, KCNQ3, KCNQ4, KCNQ5 or GLRA1 (NM_001146040) (GenScript, Piscataway, NJ, USA) by in vitro transcription using the T7 polymerase mMessage mMachine kit (Thermo Fisher Scientific), after vector linearization, from cDNA sub-cloned into plasmids incorporating Xenopus laevis β-globin 5′ and 3′ UTRs flanking the coding region to enhance translation and cRNA stability. We quantified cRNA by spectrophotometry. We generated mutant KCNQ2 and KCNQ3 cDNAs by site-directed mutagenesis using a QuikChange kit (Stratagene, San Diego, CA) and prepared the corresponding cRNAs as above. […]
(§1) We performed TEVC at room temperature using an OC-725C amplifier (Warner Instruments, Hamden, CT) and pClamp10 software (Molecular Devices, Sunnyvale, CA) 2–5 days after cRNA injection as described in the section above. […] Currents were recorded in response to voltage pulses between −120 or −80 mV and + 40 mV at 20 mV intervals from a holding potential of −80 mV, to yield current-voltage relationships, current magnitude, and for quantifying activation rate. We analyzed data using Clampfit (Molecular Devices) and Graphpad Prism software (GraphPad, San Diego, CA, USA); values are stated as mean ± SEM. […]

KCNQ5 = KCNQ5 (Homo sapiens, UniProt Q9NR82); assay: TEVC of homomeric KCNQ5 expressed in Xenopus oocytes; type: cell-based; conditions: read-out: EC50, KCNQ5 activation
Text: (§2) We generated cRNA transcripts encoding human KCNQ1, KCNQ2, KCNQ3, KCNQ4, KCNQ5 or GLRA1 (NM_001146040) (GenScript, Piscataway, NJ, USA) by in vitro transcription using the T7 polymerase mMessage mMachine kit (Thermo Fisher Scientific), after vector linearization, from cDNA sub-cloned into plasmids incorporating Xenopus laevis β-globin 5′ and 3′ UTRs flanking the coding region to enhance translation and cRNA stability. We quantified cRNA by spectrophotometry. We generated mutant KCNQ2 and KCNQ3 cDNAs by site-directed mutagenesis using a QuikChange kit (Stratagene, San Diego, CA) and prepared the corresponding cRNAs as above. We injected defolliculated stage V and VI Xenopus laevis oocytes (Ecocyte Bioscience, Austin, TX and Xenoocyte, Dexter, MI) with KCNQ channel α subunit (5-20 ng) or GLRA1 (20 ng) cRNAs. We incubated the oocytes at 16 °C in Barth’s saline solution (Ecocyte Bioscience) containing penicillin and streptomycin, with daily washing, for 2–5 days prior to two-electrode voltage-clamp (TEVC) recording.
as §1, with “above. For recording, oocytes were placed in a small-volume oocyte bath (Warner) and viewed them with a dissection microscope. Chemicals were sourced from Sigma, Matrix Scientific and Santa Cruz. […] All stock solutions were diluted in bath solution on the day of experiments. KCNQ2/3 channel activation was screened for using either 30 µM or 100 µM concentrations of each of the six compounds, then dose responses were conducted as appropriate.” for “above.”

KCNQ2/3 = KCNQ2/3 (Homo sapiens, UniProt O43525+O43526); assay: TEVC of KCNQ2/3 channels expressed in Xenopus oocytes; type: cell-based
KCNQ2/3, sequence (O43525 whole entry): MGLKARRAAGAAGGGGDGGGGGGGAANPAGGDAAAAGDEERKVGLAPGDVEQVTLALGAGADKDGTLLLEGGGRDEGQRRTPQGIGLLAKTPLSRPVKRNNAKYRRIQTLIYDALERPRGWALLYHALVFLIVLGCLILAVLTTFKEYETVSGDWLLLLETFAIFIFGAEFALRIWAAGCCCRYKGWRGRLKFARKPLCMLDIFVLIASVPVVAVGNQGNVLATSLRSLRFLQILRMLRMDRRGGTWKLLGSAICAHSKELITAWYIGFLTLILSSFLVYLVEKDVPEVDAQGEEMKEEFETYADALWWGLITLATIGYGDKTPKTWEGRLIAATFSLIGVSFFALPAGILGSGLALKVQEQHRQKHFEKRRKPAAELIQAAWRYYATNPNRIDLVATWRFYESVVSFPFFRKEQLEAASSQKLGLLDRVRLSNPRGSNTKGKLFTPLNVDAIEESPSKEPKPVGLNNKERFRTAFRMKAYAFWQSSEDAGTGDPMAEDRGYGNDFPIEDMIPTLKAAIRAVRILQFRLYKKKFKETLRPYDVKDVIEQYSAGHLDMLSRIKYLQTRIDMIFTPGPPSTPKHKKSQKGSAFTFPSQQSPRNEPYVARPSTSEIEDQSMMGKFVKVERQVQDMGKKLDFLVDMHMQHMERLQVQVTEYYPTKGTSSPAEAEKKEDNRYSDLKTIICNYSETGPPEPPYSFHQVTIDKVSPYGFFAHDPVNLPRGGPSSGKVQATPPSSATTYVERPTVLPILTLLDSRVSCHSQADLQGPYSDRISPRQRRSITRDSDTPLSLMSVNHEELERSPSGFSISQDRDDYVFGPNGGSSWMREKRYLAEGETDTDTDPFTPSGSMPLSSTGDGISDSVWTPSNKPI
KCNQ2/3, sequence (O43526 whole entry): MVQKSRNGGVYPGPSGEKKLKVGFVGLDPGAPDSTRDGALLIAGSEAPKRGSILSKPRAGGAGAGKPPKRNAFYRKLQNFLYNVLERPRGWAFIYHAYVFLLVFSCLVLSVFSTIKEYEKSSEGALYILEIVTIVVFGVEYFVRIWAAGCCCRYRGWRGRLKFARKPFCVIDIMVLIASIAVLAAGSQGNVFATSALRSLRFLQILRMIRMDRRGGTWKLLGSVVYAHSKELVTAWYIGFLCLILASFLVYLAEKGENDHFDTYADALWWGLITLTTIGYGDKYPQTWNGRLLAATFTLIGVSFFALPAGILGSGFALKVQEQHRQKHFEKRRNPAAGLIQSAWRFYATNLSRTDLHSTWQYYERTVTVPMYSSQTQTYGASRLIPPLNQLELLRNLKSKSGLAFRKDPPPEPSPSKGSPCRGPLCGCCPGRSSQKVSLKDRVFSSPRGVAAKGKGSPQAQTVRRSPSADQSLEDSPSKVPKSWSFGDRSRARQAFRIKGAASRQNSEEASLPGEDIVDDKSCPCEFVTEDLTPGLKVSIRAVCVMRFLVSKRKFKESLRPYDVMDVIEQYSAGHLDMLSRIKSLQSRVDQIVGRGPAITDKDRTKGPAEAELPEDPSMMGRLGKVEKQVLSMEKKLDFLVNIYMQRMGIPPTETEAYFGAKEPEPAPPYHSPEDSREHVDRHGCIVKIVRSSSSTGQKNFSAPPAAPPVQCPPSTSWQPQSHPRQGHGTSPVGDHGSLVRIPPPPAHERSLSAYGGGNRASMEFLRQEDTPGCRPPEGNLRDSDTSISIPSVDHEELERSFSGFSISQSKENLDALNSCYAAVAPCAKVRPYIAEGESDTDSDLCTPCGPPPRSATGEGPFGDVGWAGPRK
Text: as §2, with “We generated mutant KCNQ2 and KCNQ3 cDNAs by site-directed mutagenesis using a QuikChange kit (Stratagene, San Diego, CA) and prepared the corresponding cRNAs as above.” left out
For recording, oocytes were placed in a small-volume oocyte bath (Warner) and viewed them with a dissection microscope. Chemicals were sourced from Sigma, Matrix Scientific and Santa Cruz. […] All stock solutions were diluted in bath solution on the day of experiments. KCNQ2/3 channel activation was screened for using either 30 µM or 100 µM concentrations of each of the six compounds, then dose responses were conducted as appropriate. Bath solution was (in mM): 96 NaCl, 4 KCl, 1 MgCl2, 1 CaCl2, 10 HEPES (pH 7.6). Compounds were introduced into the oocyte recording bath by gravity perfusion at a constant flow of 1 ml per minute for 3 min prior to recording. Pipettes were of 1–2 MΩ resistance when filled with 3 M KCl. Currents were recorded in response to voltage pulses between −120 or −80 mV and + 40 mV at 20 mV intervals from a holding potential of −80 mV, to yield current-voltage relationships, current magnitude, and for quantifying activation rate. We analyzed data using Clampfit (Molecular Devices) and Graphpad Prism software (GraphPad, San Diego, CA, USA); values are stated as mean ± SEM. We plotted raw or normalized tail currents versus prepulse voltage and fitted with a single Boltzmann function:1 g=(A1−A2)/1+exp(V12−V)∕VS+A2, where g is the normalized tail conductance, A1 is the initial value at −∞, A2 is the final value at +∞, V1/2 is the half-maximal voltage of activation and Vs the slope factor. Activation, deactivation, wash-in and washout kinetics were fitted with single exponential functions to yield a τ value.

KCNQ2-R213A/KCNQ3-R242A = KCNQ2-R213A/KCNQ3-R242A (Homo sapiens, UniProt O43525+O43526, R213A/R242A); assay: TEVC of RA/RA mutant KCNQ2/3; type: cell-based; conditions: GABA up to 1 mM
Text: as §2, with “We generated mutant KCNQ2 and KCNQ3 cDNAs by site-directed mutagenesis using a QuikChange kit (Stratagene, San Diego, CA) and prepared the corresponding cRNAs as above.” left out
For recording, oocytes were placed in a small-volume oocyte bath (Warner) and viewed them with a dissection microscope. […] Currents were recorded in response to voltage pulses between −120 or −80 mV and + 40 mV at 20 mV intervals from a holding potential of −80 mV, to yield current-voltage relationships, current magnitude, and for quantifying activation rate. We analyzed data using Clampfit (Molecular Devices) and Graphpad Prism software (GraphPad, San Diego, CA, USA); values are stated as mean ± SEM. […]

[1] = 100 µM, −60 mV, single exponential fit

SMILES: CS(=O)(=O)N(CC(=O)O)c1cccc(F)c1 [3FMSG]
- competition of GABA binding to KCNQ2 (KCNQ2): able to compete out GABA binding
- effect of the KCNQ3-W265L mutation within KCNQ2/3 (KCNQ2/KCNQ3-W265L): dependent on KCNQ3-W265; also recorded: eliminated effects of 3FMSG
- EC50 (KCNQ5): 171 ± 112 nM
- KCNQ2/3 activation and deactivation rates (KCNQ2/3; 100 µM, single exponential fit (τ)): speeded KCNQ2/3 activation and slowed its deactivation
- tau of KCNQ2/3 current decrease during washout (KCNQ2/3; [1]): 40 s and 39 ± 10 s
- tau of KCNQ2/3 current increase during wash-in (KCNQ2/3; [1]): ~ 15 s and 15 ± 3 s
- increase in KCNQ2/3 current at −60 mV (KCNQ2/3; either compound alone, 1 uM): ~ fivefold
- EC50 (KCNQ2/3; shift in voltage dependence of activation (ΔV0.5act), TEVC in oocytes, read-out: EC50, KCNQ2/3 activation): 51 ± 21 nM
- activation / sensitivity of RA/RA mutant KCNQ2/3 (KCNQ2-R213A/KCNQ3-R242A): larger reduction in sensitivity
